Reference: ChEMBL document CHEMBL1201862, “PubChem BioAssay data set” (2004)
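Cells were grown in 96-well plates and exposed to each compound for 48 hours at five concentrations; endpoints were interpolated linearly between bracketing concentrations, or set to the highest concentration if not reached. At the GI50, growth is halved.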 Activity calls are given as the source filed them. Cut-off read from the data, not from the text of the source: active = GI50 up to about 1.1 µM and inactive = higher.

Columns and labels:
Assay in all cases: DTP human tumour cell line panel, 48 h
RXF 393 = tested on: RXF 393
DU-145 = tested on: DU-145
A498 = tested on: A498
K562 = tested on: K562
MDA-MB-231 = tested on: MDA-MB-231
MOLT-4 = tested on: MOLT-4
MDA-N = tested on: MDA-N
ACHN = tested on: ACHN
LOX IMVI = tested on: LOX IMVI
KM12 = tested on: KM12
HT-29 = tested on: HT-29
UO-31 = tested on: UO-31
NCI-H522 = tested on: NCI-H522
SK-MEL-28 = tested on: SK-MEL-28
RPMI-8226 = tested on: RPMI-8226
IGROV-1 = tested on: IGROV-1
HOP-92 = tested on: HOP-92
TK-10 = tested on: TK-10
NCI-H23 = tested on: NCI-H23
SR = tested on: SR

Measured: GI50

CCOC(=O)c1cn(CC)c2ccc3ccsc3c2c1=O
inactive: RXF 393 > 100 µM | DU-145 > 100 µM | A498 > 100 µM | K562 > 100 µM | MDA-MB-231 > 100 µM | MOLT-4 > 100 µM | MDA-N > 100 µM | ACHN > 100 µM | LOX IMVI > 100 µM | KM12 > 100 µM | HT-29 > 100 µM | UO-31 > 100 µM | NCI-H522 > 100 µM | SK-MEL-28 > 100 µM | RPMI-8226 > 100 µM | IGROV-1 > 100 µM | HOP-92 > 100 µM | TK-10 > 100 µM | NCI-H23 > 100 µM

CC(=O)N1C(=O)/C(=C\C(=O)c2ccc([N+](=O)[O-])cc2)c2ccccc21
inactive: RXF 393 29.1 µM | DU-145 67 µM | A498 > 100 µM | SR 3.61 µM | K562 9.18 µM | MDA-MB-231 35.3 µM | MOLT-4 19.5 µM | MDA-N 18.8 µM | ACHN 15.3 µM | KM12 19.6 µM | HT-29 17.8 µM | UO-31 19 µM | NCI-H522 15.7 µM | IGROV-1 21.4 µM | TK-10 13.1 µM | NCI-H23 28.9 µM

C(=C\c1ccccc1)/Cn1nc(-c2ccccc2)nc1-c1cnccn1
inactive: RXF 393 > 100 µM | DU-145 > 100 µM | SR > 100 µM | K562 > 100 µM | MDA-MB-231 > 100 µM | MOLT-4 > 100 µM | MDA-N > 100 µM | LOX IMVI > 100 µM | KM12 > 10 µM | HT-29 > 100 µM | UO-31 > 100 µM | NCI-H522 > 100 µM | SK-MEL-28 > 100 µM | RPMI-8226 > 100 µM | IGROV-1 > 100 µM | HOP-92 35.9 µM | TK-10 > 100 µM | NCI-H23 > 100 µM

CC(=O)Nc1ccc(CNc2cc(=O)n(C)c(=O)[nH]2)cc1
inactive: RXF 393 > 100 µM | DU-145 > 100 µM | SR > 100 µM | K562 > 100 µM | MDA-MB-231 > 100 µM | MOLT-4 > 100 µM | MDA-N > 100 µM | ACHN > 100 µM | LOX IMVI > 100 µM | KM12 > 100 µM | HT-29 > 100 µM | UO-31 > 100 µM | NCI-H522 > 100 µM | SK-MEL-28 > 100 µM | RPMI-8226 > 100 µM | IGROV-1 > 100 µM | HOP-92 > 100 µM | TK-10 > 100 µM | NCI-H23 > 100 µM

O=C1NC(Nc2ccccc2)=NC(C(F)(F)F)(C(F)(F)F)N1
inactive: DU-145 35.9 µM | SR 40.1 µM | K562 49.3 µM | MDA-MB-231 57.1 µM | MOLT-4 54.5 µM | MDA-N 25.1 µM | ACHN 35.1 µM | LOX IMVI 37.2 µM | KM12 41.6 µM | HT-29 56.2 µM | UO-31 30.8 µM | SK-MEL-28 47.2 µM | RPMI-8226 34.1 µM | IGROV-1 54 µM | HOP-92 20.7 µM | TK-10 68.4 µM | NCI-H23 23.4 µM

O=C(O)CC(NC(=O)Nc1ccc([N+](=O)[O-])cc1)C(=O)Nc1ccc([N+](=O)[O-])cc1 (stereo not given)
inactive: RXF 393 > 100 µM | DU-145 > 100 µM | A498 > 100 µM | K562 > 100 µM | MDA-MB-231 > 100 µM | MOLT-4 > 100 µM | MDA-N > 100 µM | ACHN > 100 µM | LOX IMVI > 100 µM | KM12 > 100 µM | HT-29 > 100 µM | UO-31 > 100 µM | NCI-H522 > 100 µM | SK-MEL-28 > 100 µM | RPMI-8226 > 100 µM | IGROV-1 > 100 µM | TK-10 > 100 µM | NCI-H23 > 100 µM

NC(CNO)C(=O)O (stereo not given)
inactive: RXF 393 > 100 µM | DU-145 > 100 µM | A498 > 100 µM | MDA-MB-231 > 100 µM | MDA-N > 100 µM | ACHN > 100 µM | LOX IMVI > 100 µM | KM12 > 100 µM | HT-29 > 100 µM | UO-31 > 100 µM | NCI-H522 > 100 µM | SK-MEL-28 > 100 µM | RPMI-8226 > 100 µM | IGROV-1 > 100 µM | HOP-92 > 100 µM | TK-10 > 100 µM | NCI-H23 > 100 µM

CC(=O)NC(C)(C)C1CCC(C)=C(c2ccccc2)C1 (stereo not given)
inactive: DU-145 > 100 µM | SR > 100 µM | K562 42 µM | MDA-MB-231 55.8 µM | MOLT-4 > 100 µM | MDA-N > 100 µM | LOX IMVI > 100 µM | KM12 > 100 µM | HT-29 > 100 µM | UO-31 > 100 µM | NCI-H522 88.7 µM | SK-MEL-28 > 100 µM | IGROV-1 > 100 µM | HOP-92 19.5 µM | TK-10 > 100 µM | NCI-H23 > 100 µM
